Read-outs that look alike come from different tables or passages of the source.
Columns and labels:
[1] = system: Mycobacterium tuberculosis H37Ra/ATCC 25177; experiment: In vitro antimycobacterial evaluation, MIC (alamarBlue); conditions: MT
M. smegmatis ATCC 700084 = experiment: In vitro antimycobacterial evaluation, MIC (broth dilution micro-method); type: cell-based, Mycobacterium smegmatis; conditions: Mycolicibacterium smegmatis
Protocol: For M. smegmatis, the broth dilution micro-method in Middlebrook 7H9 medium (Difco) supplemented with ADC Enrichment (Difco) was used. […] Bacterial inocula were prepared by transferring colonies from culture to sterile water. The cell density was adjusted to 0.5 McFarland units using a densitometer (Densi-La-Meter, LIAP, Riga, Latvia). The final inoculum was made by 1:1000 dilution of the suspension with sterile water. Drug-free controls, sterility controls, and controls consisting of medium and DMSO alone were included. The determination of results was performed visually after three days of static incubation in the darkness at 37 °C in an aerobic atmosphere.

[2] = system: methicillin-resistant S. aureus 63718; experiment: In vitro antibacterial evaluation, MIC by microtitration broth method; conditions: Staphylococcus aureus
[3] = system: vancomycin-resistant E. faecalis VRE 725B; experiment: as above; conditions: Enterococcus faecalis
[4] = system: Enterococcus faecalis ATCC 29212; experiment: as above
[5] = system: methicillin-resistant S. aureus SA 630; experiment: as above; conditions: Staphylococcus aureus
[6] = system: vancomycin-resistant E. faecalis VRE 368; experiment: as above; conditions: Enterococcus faecalis
[7] = system: methicillin-resistant S. aureus SA 3202; experiment: as above; conditions: Staphylococcus aureus
[8] = Lipophilicity determination by HPLC; type: physicochemical; conditions: for log D6.5: HPLC C18, MeOH 72%/acetate-buffered saline pH 6.5 28%; for log D7.4: HPLC C18, MeOH 72%/acetate-buffered saline pH 7.4 28%; for log k: logarithm of capacity factor, HPLC C18, MeOH 72%/H2O 28%
Description: . A chromatographic column Symmetry® C18 5 μm, 4.6 × 250 mm, Part No. W21751W016 (Waters Corp, Milford, MA, USA) was used. The HPLC separation process was monitored by ChemStation for LC 3D systems (Agilent Technologies). Isocratic elution by a mixture of MeOH (HPLC grade, 72%) and H2O-HPLC Mili-Q grade (28%) as a mobile phase was used for the determination of capacity factor k. Isocratic elution by a mixture of MeOH (HPLC grade, 72%) and acetate-buffered saline (pH 7.4 and pH 6.5) (28%) as a mobile phase was used for the determination of distribution coefficient expressed as D7.4 and D6.5. The total flow of the column was 1.0 mL/min, injection was 20 μL, column temperature was 40 °C, and sample temperature was 10 °C. The detection wavelength of 210 nm was chosen. A KI methanolic solution was used for the determination of the dead times (tD). Retention times (tR) were measured in minutes. The capacity factors k were calculated according to the formula k = (tR − tD)/tD, where tR is the retention time of the solute, and tD is the dead time obtained using an unretained analyte. The distribution coefficients DpH were calculated according to the formula DpH = (tR − tD)/tD. Each experiment was repeated three times.

[9] = system: human monocytic leukemia cell line THP-1; experiment: In vitro cell viability analysis (CCK-8); type: cell-based; conditions: ± SD, n = 6, medium with 10% FBS, 24 h
Protocol: Human monocytic leukemia THP-1 cells obtained from the European Collection of Cell Cultures (ECACC, Salisbury, UK) were used for in vitro antiproliferative assays. They were routinely cultured in Roswell Park Memorial Institute RPMI 1640 medium supplemented with 10% fetal bovine serum (FBS), 2% L-glutamine, 1% penicillin, and streptomycin (all from Sigma-Aldrich) at 37 °C with 5% CO2. The cells were incubated in a complete medium (i.e., containing FBS) with test compounds at 37 °C with 5% CO2 for 24 h, similarly as we described previously. The effect of the test compounds dissolved in DMSO on cell viability was determined using a Cell Counting Kit-8 (CCK-8; Sigma) according to the manufacturer’s instructions.

[10] = system: vancomycin-resistant E. faecalis VRE 342B; experiment: In vitro antibacterial evaluation, MIC by microtitration broth method; conditions: Enterococcus faecalis
[11] = system: Staphylococcus aureus ATCC 29213; experiment: as above
[12] = ATCC700084, 72 h, MS, three days, 37 °C, read-out: MIC

Row | Compound | MIC ([1]; Table S2) [µg/mL] | MIC (M. smegmatis ATCC 700084; ATCC700084) [µg/mL] | MIC [2] [µg/mL] | MIC [3] [µg/mL] | MIC ([4]; ATCC29212) [µg/mL] | MIC [5] [µg/mL] | MIC [6] [µg/mL] | MIC [7] [µg/mL] | log D6.5 [8] | log D7.4 [8] | log k [8] | IC50 [9] [µM] | MIC [10] [µg/mL] | MIC ([11]; ATCC29213) [µg/mL] | MIC ([1]; 14 days, 37 °C) | MIC (M. smegmatis ATCC 700084; [12]) | further results
1 | C[C@H](NC(=O)c1cc(Cl)ccc1OCc1ccccc1)C(=O)Nc1ccc(C(F)(F)F)cc1 [2a, 2-(Benzyloxy)-5-chloro-N-[(2S)-1-oxo-1-{[4-(trifluoromethyl)phenyl]amino}propan-2-yl]benzamide] | > 256 | > 256 | > 256 | > 256 | > 256 | > 256 | > 256 | > 256 | 1.489 | 1.474 | 1.450 | > 10 | > 256 | > 256 |  |  | averaged lipophilicity value of log k/log D6.5/log D7.4 ([8]; average of the three experimental descriptors): 1.47 ± 0.02
2 | CC(C)C[C@H](NC(=O)c1cc(Cl)ccc1OCc1ccccc1)C(=O)N[C@@H](Cc1ccccc1)C(=O)Nc1ccc(C(F)(F)F)cc1 [5a] | > 256 | > 256 | > 256 | > 256 | > 256 | > 256 | > 256 | > 256 | 1.998 | 2.031 | 2.053 | > 10 | > 256 | > 256 |  |  | 
3 | CC(C)C[C@H](NC(=O)c1cc(Cl)ccc1O)C(=O)N[C@@H](Cc1ccccc1)C(=O)Nc1ccc(C(F)(F)F)cc1 [6a] |  |  |  |  |  |  |  |  | 1.510 | 1.493 | 1.560 | 2.2 ± 1.1 |  |  | n.a. n.d. (n.a. = no activity (MIC > 256 µg/mL)) | > 256 µg/mL | MIC ([2]; 24 h): 444 µM; MIC ([3]; 24 h): > 256 µg/mL; MIC ([4]; ATCC29212, 24 h): > 256 µg/mL; MIC ([5]; 24 h): 444 µM; MIC ([6]; 24 h): > 256 µg/mL; MIC ([7]; 24 h): 444 µM; MIC ([10]; 24 h): > 256 µg/mL; MIC ([11]; ATCC29213, 24 h): 222 µM
4 | CCCC[C@H](NC(=O)c1cc(Cl)ccc1OCc1ccccc1)C(=O)Nc1ccc(C(F)(F)F)cc1 [2d, 2-(Benzyloxy)-5-chloro-N-[(2S)-1-oxo-1-{[4-(trifluoromethyl)phenyl]amino}hexan-2-yl]benzamide] | > 256 | > 256 | > 256 | > 256 | > 256 | > 256 | > 256 | > 256 | 1.954 | 1.902 | 1.898 | > 10 | > 256 | > 256 |  |  | 
5 | CC(C)C[C@H](NC(=O)[C@H](Cc1ccccc1)NC(=O)c1cc(Cl)ccc1OCc1ccccc1)C(=O)Nc1ccc(C(F)(F)F)cc1 [5b] | > 256 | > 256 | > 256 | > 256 | > 256 | > 256 | > 256 | > 256 | 1.994 | 2.027 | 2.049 | > 10 | > 256 | > 256 |  |  | 
6 | CCC[C@H](NC(=O)c1cc(Cl)ccc1O)C(=O)Nc1ccc(C(F)(F)F)cc1 [3b, 5-Chloro-2-hydroxy-N-[(2S)-1-oxo-1-{[4-(trifluoromethyl)phenyl]amino}pentan-2-yl]benzamide] |  |  |  |  |  |  |  |  | 1.060 | 1.016 | 1.141 | 7.3 ± 1.2 |  |  | n.a. n.d. (n.a. = no activity (MIC > 256 µg/mL)) | > 256 µg/mL | MIC ([2]; 24 h): > 256 µg/mL; MIC ([3]; 24 h): > 256 µg/mL; MIC ([4]; ATCC29212, 24 h): > 256 µg/mL; MIC ([5]; 24 h): > 256 µg/mL; MIC ([6]; 24 h): > 256 µg/mL; MIC ([7]; 24 h): > 256 µg/mL; MIC ([10]; 24 h): > 256 µg/mL; MIC ([11]; ATCC29213, 24 h): > 256 µg/mL
7 | CC(C)C[C@H](NC(=O)c1cc(Cl)ccc1OCc1ccccc1)C(=O)Nc1ccc(C(F)(F)F)cc1 [2f] | > 256 | > 256 | > 256 | > 256 | > 256 | > 256 | > 256 | > 256 | 2.014 | 1.995 | 1.975 | > 10 | > 256 | > 256 |  |  | 
8 | NNC(=O)c1ccncc1 [INH, isoniazid, reference compound] |  |  |  |  |  |  |  |  |  |  |  |  |  |  | 36.6 – µM | 117 µM | 

From publication PMC9569995, “Study of Biological Activities and ADMET-Related Properties of Salicylanilide-Based Peptidomimetics” (International Journal of Molecular Sciences, 2022)
